The test system of experiment [1] is T47D (PI3Kα-H1047R) cell line. Nature of the experiment: HTRF phospho-AKT(S473) cell assay in T47D cells. It is filed as cell-based, human. The conditions noted are these: Homo sapiens, 2 hours compound incubation. In outline: (§1)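 T47D (PI3Kα-H1047R; RPMI, 10% FBS, insulin) and SKBR3 (wild-type PI3Kα; McCoy's 5A, 10% FBS) cells treated 2 h at 37 °C with 12-point 1:3 dilutions, top 5 μM and 10 μM respectively, ≤0.5% DMSO. SKBR3 stimulated with 70 ng/ml PDGF-BB for the last 15 min; lysate pAKT(S473) by HTRF, IC50 from curves.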

The target in another experiment is PI3Kα (Homo sapiens, UniProt P42336). Nature of the experiment: PI3Kα enzyme assay (Transcreener ADP2 TR-FRET Red Assay). It is filed as biochemical. The conditions noted are these: purified recombinant full-length protein; 2 hours pre-incubation with compound; read-out: PI3Kα WT IC50. The protocol:
(§2) Activity against PI3Kα and PI3Kα H1047R enzymes were determined in biochemical assays using purified recombinant full-length proteins with the Transcreener ADP^2 TR-FRET Red Assay from Bellbrook Labs. (Catalogue number 3011-10K). Test compounds were dissolved in DMSO and were tested in 11 point 1:3 serial dilutions, typical final concentration range from 50,000 nM to 0.85 nM. Enzymes were pre-incubated with compounds for 2 hours at room temperature prior to initiating the reactions. Assays were initiated with a 2×ATP/PI(4,5)P2 diC8 substrate mixture. After 60 minutes at room temperature, the reactions were quenched with detection reagent and incubated for an additional 60 minutes at room temperature. The plates were read using a multimode reader and the emission ratio of 665 nm to 615 nm was determined. This ratio was converted to percent of control (POC). [1-(high control-sample signal)/(high control-low control)]*100. Wells without compound were used to determine high control values and wells without enzyme were used to determine low control values. The POC values were fit using a four-parameter logistic model and the value where the fit curve was equal to 50 POC was reported as the IC50 using the Signals VitroVivo software package (PerkinElmer). Final assay conditions were: 40 mM HEPES pH 7.5, 20 mM NaCl, 25 mM MgCl2, 0.01% Triton X-100. The enzyme source, catalogue number, final enzyme concentration, and final ATP and PI(4,5)P2 diC8 concentration can be found in the table E10 below.

Experiment [2] has as its system SKBR3 (PI3Kα-Wild Type) cell line. The experiment can be described thus: HTRF phospho-AKT(S473) cell assay in SKBR3 cells. It is filed as cell-based, human. The conditions noted are these: Homo sapiens, SK-BR-3, 2 hours compound incubation, PDGF-BB stimulated. The method in brief:
as §1

In a further experiment the target is PI3Kα H1047R (Homo sapiens, UniProt P42336, H1047R). Nature of the experiment: PI3Kα H1047R enzyme assay (Transcreener ADP2 TR-FRET Red Assay). Conditions: purified recombinant full-length protein; 2 hours pre-incubation with compound. It is filed as biochemical. The method, then:
as §2
For orientation: In TR-FRET formats the signal depends on donor and acceptor labels being close together.

Where [3] appears, read: T47D (PI3Kα-H1047R) cells, HTRF phospho-AKT(S473).
[4] abbreviates: SKBR3 (PI3Kα-Wild Type) cells, HTRF phospho-AKT(S473).

Experimental findings from patent US12281122B1, “PI3K inhibitors” (Cogent Biosciences, Inc., priority 2023, dated 2025) are described below.

Chain of PI3Kα (P42336 whole entry): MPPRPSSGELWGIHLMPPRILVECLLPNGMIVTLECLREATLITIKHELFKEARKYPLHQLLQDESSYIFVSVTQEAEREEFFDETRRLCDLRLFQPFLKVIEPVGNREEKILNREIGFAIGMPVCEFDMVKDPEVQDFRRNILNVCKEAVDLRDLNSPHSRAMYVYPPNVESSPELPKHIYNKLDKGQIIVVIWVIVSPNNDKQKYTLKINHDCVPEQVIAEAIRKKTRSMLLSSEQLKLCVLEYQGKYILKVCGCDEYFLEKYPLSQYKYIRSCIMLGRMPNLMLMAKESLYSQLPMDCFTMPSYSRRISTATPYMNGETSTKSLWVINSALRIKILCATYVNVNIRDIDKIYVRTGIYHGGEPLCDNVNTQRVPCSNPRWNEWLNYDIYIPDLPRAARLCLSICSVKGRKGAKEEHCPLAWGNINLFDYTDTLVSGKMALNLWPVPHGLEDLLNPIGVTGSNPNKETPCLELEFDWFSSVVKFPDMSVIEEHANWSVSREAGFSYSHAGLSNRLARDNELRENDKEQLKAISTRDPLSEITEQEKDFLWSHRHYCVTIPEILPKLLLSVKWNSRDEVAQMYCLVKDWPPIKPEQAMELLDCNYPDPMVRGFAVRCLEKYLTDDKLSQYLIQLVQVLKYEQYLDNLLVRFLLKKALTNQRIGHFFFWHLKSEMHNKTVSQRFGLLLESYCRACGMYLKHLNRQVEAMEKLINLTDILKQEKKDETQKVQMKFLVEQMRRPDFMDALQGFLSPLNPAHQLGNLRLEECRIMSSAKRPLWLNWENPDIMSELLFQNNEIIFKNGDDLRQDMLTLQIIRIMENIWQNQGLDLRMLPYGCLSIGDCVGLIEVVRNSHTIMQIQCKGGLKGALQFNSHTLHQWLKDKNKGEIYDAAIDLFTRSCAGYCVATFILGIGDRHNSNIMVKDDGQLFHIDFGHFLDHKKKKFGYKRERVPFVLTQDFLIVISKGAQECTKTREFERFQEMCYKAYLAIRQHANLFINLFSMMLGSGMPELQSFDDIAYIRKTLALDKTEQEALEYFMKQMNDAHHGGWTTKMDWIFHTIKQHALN
Chain of PI3Kα (P27986 2-724 partner): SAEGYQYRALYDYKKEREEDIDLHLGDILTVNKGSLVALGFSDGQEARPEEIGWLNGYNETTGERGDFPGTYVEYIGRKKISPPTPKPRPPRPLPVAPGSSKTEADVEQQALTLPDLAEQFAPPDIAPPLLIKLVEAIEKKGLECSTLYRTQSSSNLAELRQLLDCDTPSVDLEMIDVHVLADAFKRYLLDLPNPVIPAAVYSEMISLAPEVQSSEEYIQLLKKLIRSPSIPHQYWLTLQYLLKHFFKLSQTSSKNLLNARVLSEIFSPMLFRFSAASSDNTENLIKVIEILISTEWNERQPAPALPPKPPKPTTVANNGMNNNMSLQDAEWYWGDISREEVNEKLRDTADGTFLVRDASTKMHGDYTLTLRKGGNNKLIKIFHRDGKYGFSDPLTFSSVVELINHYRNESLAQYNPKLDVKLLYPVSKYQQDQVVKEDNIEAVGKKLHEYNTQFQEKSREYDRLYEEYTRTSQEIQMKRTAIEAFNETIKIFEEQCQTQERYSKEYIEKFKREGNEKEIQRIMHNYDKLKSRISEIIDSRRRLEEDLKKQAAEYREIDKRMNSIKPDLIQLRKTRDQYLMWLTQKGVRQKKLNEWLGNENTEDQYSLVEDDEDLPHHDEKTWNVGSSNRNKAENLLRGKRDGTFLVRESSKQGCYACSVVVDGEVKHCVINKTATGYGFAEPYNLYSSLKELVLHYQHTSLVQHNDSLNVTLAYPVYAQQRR
Chain of PI3Kα H1047R (P42336 whole entry H1047R): as the sequence (P42336 whole entry) above, with H1047R counted along it
Chain of PI3Kα H1047R (P27986 2-724 partner): as the sequence (P27986 2-724 partner) above

A word on the IC50: it is the concentration that inhibits the measured activity by half. As for `Cc1cc([C@@H](C)Nc2ccc(Cl)nc2C(=O)NS(C)(=O)=O)c2nc(N3CC4(C3)CC(F)(F)C4)n(C)c(=O)c2c1` [Compound 9, (R)-6-chloro-3-((1-(2-(6,6-difluoro-2-azaspiro[3.3]heptan-2-yl)-3,6-dimethyl-4-oxo-3,4-dihydroquinazolin-8-yl)ethyl)amino)-N-(methylsulfonyl) picolinamide], the IC50 in experiment [1] (setting [3]) was 250 to 500 nM; at PI3Kα, no less than 1000 nM; in experiment [2] (setting [4]) it was 1000 to 5000 nM; at PI3Kα H1047R it was 500 to 1000 nM.

As to `Cc1cc([C@@H](C)Nc2ccc(Cl)nc2C(=O)NS(C)(=O)=O)c2nc(N3CCC(F)(F)C[C@H]3C)n(C)c(=O)c2c1` (single isomer, unassigned) [Compound 41, 6-chloro-3-(((R)-1-(2-((R*)-4,4-difluoro-2-methylpiperidin-1-yl)-3,6-dimethyl-4-oxo-3,4-dihydroquinazolin-8-yl)ethyl)amino)-N-(methylsulfonyl) picolinamide], the IC50 in experiment [1] (setting [3]) is 250 to 500 nM; on PI3Kα it was no less than 1000 nM; in experiment [2] (setting [4]), 1000 to 5000 nM; at PI3Kα H1047R, 500 to 1000 nM.

With `C[C@@H](Nc1ccc(Cl)[nH]c1=O)c1cc(F)cc2c(=O)n(C)c(N3CCOCC3)nc12` [Compound 101, (R)-8-(1-((6-chloro-2-oxo-1,2-dihydropyridin-3-yl)amino)ethyl)-6-fluoro-3-methyl-2-morpholinoquinazolin-4(3H)-one], the IC50 was 1000 to 5000 nM in experiment [1] (setting [3]), no less than 1000 nM on PI3Kα, no less than 5000 nM in experiment [2] (setting [4]) and 100 to 250 nM on PI3Kα H1047R.

As for `Cc1cc([C@@H](C)Nc2cn(C)nc2C(=O)NS(C)(=O)=O)c2nc(N3Cc4ccc(F)cc4C3)n(C)c(=O)c2c1` (single isomer, unassigned) [Compound 106, 4-((1-(2-(5-fluoroisoindolin-2-yl)-3,6-dimethyl-4-oxo-3,4-dihydroquinazolin-8-yl)ethyl)amino)-1-methyl-N-(methylsulfonyl)-1H-pyrazole-3-carboxamide], the IC50 in experiment [1] (setting [3]) is 1000 to 5000 nM; at PI3Kα it was no less than 1000 nM; in experiment [2] (setting [4]), no less than 5000 nM; on PI3Kα H1047R, no less than 1000 nM.

As for `Cc1cc([C@@H](C)Nc2ccc(Cl)nc2C(=O)NS(C)(=O)=O)c2nc(N(C)CC3(C(F)(F)F)CC3)n(C)c(=O)c2c1` [Compound 43, (R)-6-chloro-3-((1-(3,6-dimethyl-2-(methyl((1-(trifluoromethyl)cyclopropyl)methyl)amino)-4-oxo-3,4-dihydroquinazolin-8-yl)ethyl)amino)-N-(methylsulfonyl) picolinamide], the IC50 on PI3Kα and on PI3Kα H1047R was no less than 1000 nM throughout.

In the case of `Cc1cc([C@@H](C)Nc2ccc(Cl)nc2C(=O)NS(C)(=O)=O)c2nc(N3CCC(F)(F)C[C@@H]3C)n(C)c(=O)c2c1` (single isomer, unassigned) [Compound 42, 6-chloro-3-(((R)-1-(2-((R*)-4,4-difluoro-2-methylpiperidin-1-yl)-3,6-dimethyl-4-oxo-3,4-dihydroquinazolin-8-yl)ethyl)amino)-N-(methylsulfonyl) picolinamide], the IC50 was 250 to 500 nM in experiment [1] (setting [3]), no less than 1000 nM at PI3Kα, 1000 to 5000 nM in experiment [2] (setting [4]) and 500 to 1000 nM at PI3Kα H1047R.

Turning to `Cc1cc([C@@H](C)Nc2ccc(Cl)cc2C(=O)NS(C)(=O)=O)c2nc(N3Cc4ccc(F)cc4C3)n(C)c(=O)c2c1` [Compound 64, (R)-5-chloro-2-((1-(2-(5-fluoro-isoindolin-2-yl)-3,6-dimethyl-4-oxo-3,4-dihydroquinazolin-8-yl)ethyl)amino)-N-(methylsulfonyl) benzamide], the IC50 in experiment [1] (setting [3]) is 1000 to 5000 nM; at PI3Kα, no less than 1000 nM; in experiment [2] (setting [4]), 1000 to 5000 nM; on PI3Kα H1047R, no less than 1000 nM.

Regarding `C[C@@H](Nc1ccc[nH]c1=O)c1cc(F)cc2c(=O)n(C)c(N3Cc4cnn(C)c4C3)nc12` [Compound 98, (R)-6-fluoro-3-methyl-2-(1-methyl-4,6-dihydropyrrolo[3,4-c]pyrazol-5(1H)-yl)-8-(1-((2-oxo-1,2-dihydropyridin-3-yl)amino)ethyl)quinazolin-4(3H)-one], the IC50 in experiment [1] (setting [3]) was 1000 to 5000 nM; on PI3Kα it was no less than 1000 nM; in experiment [2] (setting [4]) it was no less than 5000 nM; on PI3Kα H1047R, no less than 1000 nM.

In the case of `Cc1cc([C@@H](C)Nc2ccc(Cl)nc2C(=O)NS(C)(=O)=O)c2nc(NCCC3CC3)n(C)c(=O)c2c1` [Compound 18, (R)-6-chloro-3-((1-(2-((2-cyclopropylethyl)amino)-3,6-dimethyl-4-oxo-3,4-dihydroquinazolin-8-yl)ethyl)amino)-N-(methylsulfonyl) picolinamide], the IC50 is 1000 to 5000 nM in experiment [1] (setting [3]), no less than 1000 nM at PI3Kα, no less than 5000 nM in experiment [2] (setting [4]) and no less than 1000 nM at PI3Kα H1047R.

On to `Cc1cc([C@@H](C)Nc2ccc(Cl)nc2C(=O)NS(C)(=O)=O)c2nc(-c3cccnc3C)n(C)c(=O)c2c1` [Compound 85, (R)-6-chloro-3-((1-(3,6-dimethyl-2-(2-methylpyridin-3-yl)-4-oxo-3,4-dihydroquinazolin-8-yl)ethyl)amino)-N-(methylsulfonyl) picolinamide], for which the IC50 in experiment [1] (setting [3]) was 1000 to 5000 nM; at PI3Kα it was no less than 1000 nM; in experiment [2] (setting [4]), no less than 5000 nM; at PI3Kα H1047R it was no less than 1000 nM.

Regarding `Cc1cc([C@@H](C)Nc2ccc(Cl)nc2C(=O)NS(C)(=O)=O)c2nc(N3Cc4cnn(CC(F)(F)F)c4C3)n(C)c(=O)c2c1` [Compound 53, (R)-6-chloro-3-((1-(3,6-dimethyl-4-oxo-2-(1-(2,2,2-trifluoroethyl)-4,6-dihydropyrrolo[3,4-c]pyrazol-5(1H)-yl)-3,4-dihydroquinazolin-8-yl)ethyl)amino)-N-(methylsulfonyl) picolinamide], the IC50 in experiment [1] (setting [3]) is less than 250 nM; on PI3Kα, no less than 1000 nM; in experiment [2] (setting [4]) it was 1000 to 5000 nM; at PI3Kα H1047R, 100 to 250 nM.

With `Cc1cc([C@@H](C)Nc2ccc(Cl)nc2C(=O)NS(C)(=O)=O)c2nc(N3CC[C@H](Oc4cc[nH]n4)C3)n(C)c(=O)c2c1` [Compound 362, 3-(((R)-1-(2-((S)-3-((1H-pyrazol-3-yl)oxy)pyrrolidin-1-yl)-3,6-dimethyl-4-oxo-3,4-dihydroquinazolin-8-yl)ethyl)amino)-6-chloro-N-(methylsulfonyl) picolinamide], the IC50 was less than 250 nM in experiment [1] (setting [3]) and 1000 to 5000 nM in experiment [2] (setting [4]).

Consider `Cc1cc([C@@H](C)Nc2ccc(Cl)nc2C(=O)NS(C)(=O)=O)c2nc(N3CCC(c4cccc(=O)n4C)CC3)n(C)c(=O)c2c1` [Compound 370, (R)-6-chloro-3-((1-(3,6-dimethyl-2-(4-(1-methyl-6-oxo-1,6-dihydropyridin-2-yl)piperidin-1-yl)-4-oxo-3,4-dihydroquinazolin-8-yl)ethyl)amino)-N-(methylsulfonyl) picolinamide], for which the IC50 in experiment [1] (setting [3]) is less than 250 nM; in experiment [2] (setting [4]), 1000 to 5000 nM.

`Cc1cnc(-c2ccc(-c3nc4c([C@@H](C)Nc5ccc(Cl)nc5C(=O)NS(C)(=O)=O)cc(C)cc4c(=O)n3C)cn2)nc1` [Compound 851, (R)-6-chloro-3-((1-(3,6-dimethyl-2-(6-(5-methylpyrimidin-2-yl)pyridin-3-yl)-4-oxo-3,4-dihydroquinazolin-8-yl)ethyl)amino)-N-(methylsulfonyl) picolinamide]: the IC50 in experiment [1] (T47D (PI3Kα-H1047R) cell line, phospho-AKT(S473) HTRF) is 250 to 500 nM; in experiment [2] (SKBR3 (PI3Kα-Wild Type) cell line, phospho-AKT(S473) HTRF), 1000 to 5000 nM.

For the compound `Cc1cc([C@@H](C)Nc2ccc(Cl)nc2C(=O)NS(C)(=O)=O)c2nc(N3CC[C@H](Oc4ccc(F)cn4)C3)n(C)c(=O)c2c1` [Compound 513, 6-chloro-3-(((R)-1-(2-((S)-3-((5-fluoropyridin-2-yl)oxy)pyrrolidin-1-yl)-3,6-dimethyl-4-oxo-3,4-dihydroquinazolin-8-yl)ethyl)amino)-N-(methylsulfonyl) picolinamide], the IC50 in experiment [1] (HTRF phospho-AKT(S473), T47D (PI3Kα-H1047R) cells) was 250 to 500 nM; in experiment [2] (HTRF phospho-AKT(S473), SKBR3 (PI3Kα-Wild Type) cells) it was no less than 5000 nM.

On to `COC1CCC2(CC1)CCN(c1nc3c([C@@H](C)Nc4ccc(Cl)nc4C(=O)NS(C)(=O)=O)cc(C)cc3c(=O)n1C)CC2` [Compound 282, (R)-6-chloro-3-((1-(2-(9-methoxy-3-azaspiro[5.5]undecan-3-yl)-3,6-dimethyl-4-oxo-3,4-dihydroquinazolin-8-yl)ethyl)amino)-N-(methylsulfonyl) picolinamide], for which the IC50 is less than 250 nM in experiment [1] (setting [3]) and no less than 5000 nM in experiment [2] (setting [4]).
